Laboratory results as given in patent US10189854B2, “Substituted pyrimidine compounds” (Grünenthal GmbH, priority 2014, dated 2019).

Target: human PDE4B1 (Homo sapiens (Human), UniProt Q07343)
Experiment: cAMP HTRF assay to determine the activity of hPDE4B1
Type: biochemical
Details: IC50 inhibition of PDE4B; human recombinant PDE4B1, cAMP HTRF assay
In short: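 Recombinant human PDE4B1 expressed in Sf9 cells (4.8 U) was incubated with 40 nM cAMP for 30 min at room temperature in Tris buffer, pH 7.8, with MgCl2, DTT and Tween 20. HTRF detection of remaining cAMP followed, with 1 mM IBMX stop, read 60 min later as the 665/620 nm ratio. Results are % inhibition versus control.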

human PDE4B1, sequence (Q07343 whole entry): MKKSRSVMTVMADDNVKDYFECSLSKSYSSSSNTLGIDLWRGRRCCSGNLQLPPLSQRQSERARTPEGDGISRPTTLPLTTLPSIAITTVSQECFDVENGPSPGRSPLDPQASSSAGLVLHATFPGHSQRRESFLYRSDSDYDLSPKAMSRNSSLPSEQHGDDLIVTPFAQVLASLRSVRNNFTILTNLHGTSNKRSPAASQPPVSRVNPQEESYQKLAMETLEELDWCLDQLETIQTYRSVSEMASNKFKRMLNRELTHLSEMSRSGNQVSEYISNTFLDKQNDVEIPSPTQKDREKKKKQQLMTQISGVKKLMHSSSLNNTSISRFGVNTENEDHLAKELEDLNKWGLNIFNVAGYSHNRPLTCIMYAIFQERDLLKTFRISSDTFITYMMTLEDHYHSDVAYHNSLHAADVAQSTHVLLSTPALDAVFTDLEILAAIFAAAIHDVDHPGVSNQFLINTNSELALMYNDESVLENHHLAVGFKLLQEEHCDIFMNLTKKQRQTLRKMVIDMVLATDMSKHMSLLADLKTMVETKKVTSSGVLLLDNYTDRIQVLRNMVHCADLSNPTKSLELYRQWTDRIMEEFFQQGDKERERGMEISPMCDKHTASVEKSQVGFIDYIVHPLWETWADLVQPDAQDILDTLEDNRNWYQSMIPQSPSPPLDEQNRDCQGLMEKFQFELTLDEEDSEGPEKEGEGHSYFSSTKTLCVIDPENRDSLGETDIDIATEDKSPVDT

Question: Which IC50 does the source give for `NC(=O)c1ccc2c(c1)N(c1ncc(-c3ccccc3F)cn1)CC21CC1` [Compound 127, 1-[5-(2-Fluorophenyl)-pyrimidin-2-yl]-spiro[1,2-dihydro-indole-3,1′-cyclopropane]-6-carboxylic acid amide] here?
Answer: The IC50 was 0.1 to 1 µM.

Question: How did the IC50 turn out when `N[C@H]1CCN(C(=O)c2ccc3c(c2)N(c2ncc(-c4ccccc4F)cn2)CC32CC2)C1` [Compound 115, [(3S)-3-Amino-pyrrolidin-1-yl]-[1-[5-(2-fluorophenyl)-pyrimidin-2-yl]-spiro[1,2-dihydro-indole-3,1′-cyclopropane]-6-yl]-methanone] was run?
Answer: Its IC50 is under 0.1 µM.

Question: For `O=C(c1ccc2c(c1)N(c1ncc(-c3cc(OC(F)(F)F)ccc3F)cn1)CC21CC1)N1CCOCC1` [Compound 67, [1-[5-(2-Fluoro-5-(trifluoromethyloxy)-phenyl]-pyrimidin-2-yl]-spiro[1,2-dihydro-indole-3,1′-cyclopropane]-6-yl]-morpholin-4-yl-methanone], which IC50 is on record?
Answer: Its IC50 is 0.1 to 1 µM.

Question: For `CCN(CC)C(=O)c1ccc2c(c1)N(c1ncc(-c3ccccc3F)cn1)CC21CC1` [Compound 47, N,N-Diethyl-1-[5-(2-fluorophenyl)-pyrimidin-2-yl]-spiro[1,2-dihydro-indole-3,1′-cyclopropane]-6-carboxylic acid amide], which IC50 is on record?
Answer: Its IC50 is 0.1 to 1 µM.

Question: “1-[5-(3-Carbamoyl-phenyl)-pyrimidin-2-yl]-N-(2-hydroxy-ethyl)-N-methyl-spiro[1,2-dihydro-indole-3,1′-cyclopropane]-6-carboxylic acid amide [Compound 198]” was tested. Which IC50 did it give?
Answer: Its IC50 is under 0.1 µM.

Question: `O=C(c1ccc2c(c1)N(c1ncc(-c3ccccc3F)cn1)CC21CC1)N1CC[C@@H](O)C1` [Compound 44, [1-[5-(2-Fluorophenyl)-pyrimidin-2-yl]-spiro[1,2-dihydro-indole-3,1′-cyclopropane]-6-yl]-[(3R)-3-hydroxy-pyrrolidin-1-yl]-methanone] was tested. Which IC50 did it give?
Answer: The IC50 was under 0.1 µM.

Question: For `COc1ccc(F)c(-c2cnc(N3CC4(CC4)c4ccc(C(=O)N5CCOCC5)cc43)nc2)c1` [Compound 16, [1-[5-(2-Fluoro-5-methoxy-phenyl)-pyrimidin-2-yl]-spiro[1,2-dihydro-indole-3,1′-cyclopropane]-6-yl]-morpholin-4-yl-methanone], which IC50 is on record?
Answer: Its IC50 is under 0.1 µM.

Question: With `O=C(NCCN1CCCC1=O)c1ccc2c(c1)N(c1ncc(-c3ccccc3F)cn1)CC21CC1` [Compound 78, 1-[5-(2-Fluorophenyl)-pyrimidin-2-yl]-N-[2-(2-oxo-pyrrolidin-1-yl)-ethyl]-spiro[1,2-dihydro-indole-3,1′-cyclopropane]-6-carboxylic acid amide] as the molecule, how does the IC50 read?
Answer: The IC50 was 0.1 to 1 µM.

Question: How did the IC50 turn out when `N#Cc1cccc(-c2cnc(N3CC4(CC4)c4ccc(C(=O)N5CCOCC5)cc43)nc2)c1` [Compound 56, 3-[2-[6-(Morpholine-4-carbonyl)-spiro[1,2-dihydro-indole-3,1′-cyclopropane]-1-yl]-pyrimidin-5-yl]-benzonitrile] was run?
Answer: The IC50 was under 0.1 µM.

Question: Which IC50 does the source give for `O=C(c1ccc2c(c1)N(c1ncc(-c3cccc(F)c3F)cn1)CC21CC1)N1CCOCC1` [Compound 15, [1-[5-(2,3-Difluoro-phenyl)-pyrimidin-2-yl]-spiro[1,2-dihydro-indole-3,1′-cyclopropane]-6-yl]-morpholin-4-yl-methanone] here?
Answer: The IC50 was under 0.1 µM.

Question: `O=C(c1ccc2c(n1)N(c1ncc(-c3ccccc3F)cn1)CC21CC1)N1CCOCC1` [Compound 170, [1-[5-(2-Fluorophenyl)-pyrimidin-2-yl]-spiro[1,2-dihydro-pyrrolo[2,3-b]pyridine-3,1′-cyclopropane]-6-yl]-morpholin-4-yl-methanone] was tested. Which IC50 did it give?
Answer: Its IC50 is under 0.1 µM.

Question: For `CC1(C)CN(c2ncc(-c3ccccc3F)cn2)c2cc(C(=O)N3CCOCC3)ccc21` [Compound 9, [1-[5-(2-Fluorophenyl)-pyrimidin-2-yl]-3,3-dimethyl-1,2-dihydro-indol-6-yl]-morpholin-4-yl-methanone], which IC50 is on record?
Answer: The IC50 was 0.1 to 1 µM.

Question: `Cn1ccc(-c2cnc(N3CC4(CC4)c4ccc(C(=O)N5CCOCC5)cc43)nc2)n1` [Compound 137, [1-[5-(1-Methyl-1H-pyrazol-3-yl)-pyrimidin-2-yl]-spiro[1,2-dihydro-indole-3,1′-cyclopropane]-6-yl]-morpholin-4-yl-methanone] was tested. Which IC50 did it give?
Answer: The IC50 was under 0.1 µM.

Question: How did the IC50 turn out when `N#Cc1ccc(F)c(-c2cnc(N3CC4(CC4)c4ccc(C(=O)N5CCOCC5)cc43)nc2)c1` [Compound 22, 4-Fluoro-3-[2-[6-(morpholine-4-carbonyl)-spiro[1,2-dihydro-indole-3,1′-cyclopropane]-1-yl]-pyrimidin-5-yl]-benzonitrile] was run?
Answer: Its IC50 is under 0.1 µM.

Question: `Cc1nc(C)c(-c2cnc(N3CC4(CC4)c4ccc(C(=O)N5CCOCC5)cc43)nc2)s1` [Compound 154, [1-[5-(2,4-Dimethyl-thiazol-5-yl)-pyrimidin-2-yl]-spiro[1,2-dihydro-indole-3,1′-cyclopropane]-6-yl]-morpholin-4-yl-methanone] was tested. Which IC50 did it give?
Answer: Its IC50 is under 0.1 µM.

Question: `Cn1ccc(-c2cnc(N3CC4(CC4)c4ccc(C(=O)N5CCOCC5)cc43)nc2)c1` [Compound 136, [1-[5-(1-Methyl-1H-pyrrol-3-yl)-pyrimidin-2-yl]-spiro[1,2-dihydro-indole-3,1′-cyclopropane]-6-yl]-morpholin-4-yl-methanone] was tested. Which IC50 did it give?
Answer: The IC50 was under 0.1 µM.

Question: With “[1-[5-(1-Fluorophenyl)-pyrimidin-2-yl]-spiro[1,2-dihydro-indole-3,1′-cyclopropane]-6-yl]-pyrrolidin-1-yl-methanone [Compound 3]” as the molecule, how does the IC50 read?
Answer: Its IC50 is under 0.1 µM.

Question: How did the IC50 turn out when `CN(CCO)C(=O)c1ccc2c(c1)N(c1ncc(-c3cc(F)cc(F)c3)cn1)CC21CC1` [Compound 126, 1-[5-(3,5-Difluoro-phenyl)-pyrimidin-2-yl]-N-(2-hydroxy-ethyl)-N-methyl-spiro[1,2-dihydro-indole-3,1′-cyclopropane]-6-carboxylic acid amide] was run?
Answer: Its IC50 is under 0.1 µM.

Question: For `O=C(c1ccc2c(c1)N(c1ncc(-c3ccccc3F)cn1)CC21CC1)N1CC2(COC2)C1` [Compound 64, [1-[5-(2-Fluorophenyl)-pyrimidin-2-yl]-spiro[1,2-dihydro-indole-3,1′-cyclopropane]-6-yl]-(2-oxa-6-azaspiro[3.3]heptan-6-yl)-methanone], which IC50 is on record?
Answer: The IC50 was 1 to 10 µM.

Question: How did the IC50 turn out when `CN(Cc1ccco1)C(=O)c1ccc2c(c1)N(c1ncc(-c3ccccc3F)cn1)CC21CC1` [Compound 91, 1-[5-(2-Fluorophenyl)-pyrimidin-2-yl]-N-(furan-2-yl-methyl)-N-methyl-spiro[1,2-dihydro-indole-3,1′-cyclopropane]-6-carboxylic acid amide] was run?
Answer: Its IC50 is 0.1 to 1 µM.

Question: Which IC50 does the source give for “[1-[5-(2-Methyl-pyrimidin-4-yl)-pyrimidin-2-yl]-spiro[1,2-dihydro-indole-3,1′-cyclopropane]-6-yl]-morpholin-4-yl-methanone [Compound 185]” here?
Answer: The IC50 was under 0.1 µM.

Question: `O=C(c1ccc2c(c1)N(c1ncc(-c3cccc(F)c3)cn1)CC21CC1)N1CCCC1` [Compound 130, [1-[5-(3-Fluorophenyl)-pyrimidin-2-yl]-spiro[1,2-dihydro-indole-3,1′-cyclopropane]-6-yl]-pyrrolidin-1-yl-methanone] was tested. Which IC50 did it give?
Answer: Its IC50 is under 0.1 µM.

Question: For “Morpholin-4-yl-[1-(5-pyrimidin-4-yl-pyrimidin-2-yl)-spiro[1,2-di-hydro-indole-3,1′-cyclopropane]-6-yl]-methanone [Compound 190]”, which IC50 is on record?
Answer: The IC50 was under 0.1 µM.

Question: `NC(=O)c1ccc(F)c(-c2cnc(N3CC4(CC4)c4ccc(C(=O)N5CCNCC5)cc43)nc2)c1` [Compound 116, 4-Fluoro-3-[2-[6-(piperazine-1-carbonyl)-spiro[1,2-dihydro-indole-3,1′-cyclopropane]-1-yl]-pyrimidin-5-yl]-benzamide] was tested. Which IC50 did it give?
Answer: Its IC50 is under 0.1 µM.
